Experimental data published in ChEMBL document CHEMBL4699480 (J Med Chem, 2020).
Calls of active or inactive are those of the source. No cut-off for these calls is given here.

What was measured:
[1] = Inhibition of N-terminal 6x-His-tagged Hydrogenivirga-sp. 128-5-R1-1 MraY expressed in Escherichia coli NiCo21(DE3) incubated for 2 hrs by reversed-phase HPLC analysis
[2] = target: T1, UDP-N-acetylglucosamine--dolichyl-phosphate N-acetylglucosaminephosphotransferase (Homo sapiens, UniProt Q9H3H5); experiment: Inhibition of human DPAGT1 expressed in HEK293 (Expi293) cells incubated for 2 hrs using UDP-GlcN-Cg-FITC and alpha-dihydroundecap-renyl phosphate by reversed-phase HPLC analysis; format: cell-based
T1 sequence (Q9H3H5 whole entry): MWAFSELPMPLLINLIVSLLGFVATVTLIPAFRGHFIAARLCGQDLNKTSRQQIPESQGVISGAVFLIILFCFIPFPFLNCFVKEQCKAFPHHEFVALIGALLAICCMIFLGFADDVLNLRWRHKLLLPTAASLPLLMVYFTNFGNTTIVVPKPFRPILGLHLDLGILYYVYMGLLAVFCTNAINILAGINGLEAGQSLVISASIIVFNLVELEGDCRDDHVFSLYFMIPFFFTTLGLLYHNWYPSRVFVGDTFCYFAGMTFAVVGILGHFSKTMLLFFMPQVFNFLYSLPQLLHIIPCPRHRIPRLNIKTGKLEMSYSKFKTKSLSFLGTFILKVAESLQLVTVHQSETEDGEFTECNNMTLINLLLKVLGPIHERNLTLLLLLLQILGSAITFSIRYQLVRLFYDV

SiHa [3] = experiment: Cytotoxicity in human SiHa cells assessed as reduction in cell viability incubated for 72 hrs by MTT assay; format: functional, cell-based
HCT-116 [4] = experiment: Cytotoxicity in human HCT-116 cells assessed as reduction in cell viability incubated for 72 hrs by MTT assay; format: functional, cell-based; details: HCT-116, 72 h
CAPAN-1 [5] = experiment: Cytotoxicity in human CAPAN-1 cells assessed as reduction in cell viability incubated for 72 hrs by MTT assay; format: functional, cell-based; details: CAPAN-1, 72 h
ASPC1 [6] = experiment: Cytotoxicity in human ASPC1 cells assessed as reduction in cell viability incubated for 72 hrs by MTT assay; format: functional, cell-based; details: ASPC1, 72 h
[7] = Cytotoxicity in human PD002 cells assessed as reduction in cell viability incubated for 72 hrs by MTT assay; format: functional, cell-based; details: PD002, 72 h
[8] = Cytotoxicity in human hTERT-HPNE cells assessed as reduction in cell viability incubated for 72 hrs by MTT assay; format: cell-based
Vero = experiment: Cytotoxicity in African green monkey Vero cells assessed as reduction in cell viability incubated for 72 hrs by MTT assay; format: cell-based; details: Chlorocebus sabaeus
[9] = Inhibition of cell proliferation in human PD002 cells incubated for 72 hrs; format: functional
[10] = Inhibition of cell migration in human PD002 cells assessed as wound healing rate at 0.2 uM incubated for 24 hrs by wound healing assay (reference value: 63%); format: functional; design: scale not given: the % may be the effect or the level left
PD002 [11] = experiment: Inhibition of cell migration in human PD002 cells at 0.1 uM incubated for 0.5 hrs by crystal violet staining based Boyden chamber assay; format: functional
[12] = target: T2, UDP-N-acetylglucosamine--dolichyl-phosphate N-acetylglucosaminephosphotransferase (Homo sapiens) (UniProt Q9H3H5); experiment: Inhibition of DPAGT1 in human PD002 cells assessed as reduction in snail protein expression incubated for 24 hrs by immunofluorescence staining assay; format: cell-based
T2 sequence (whole entry): T1 sequence (Q9H3H5 whole entry)

[13] = target: T2, UDP-N-acetylglucosamine--dolichyl-phosphate N-acetylglucosaminephosphotransferase (Homo sapiens); experiment: Inhibition of DPAGT1 in human PANC-1 cells assessed as reduction in snail protein expression incubated for 24 hrs by immunofluorescence staining assay; format: cell-based
[14] = target: T2, UDP-N-acetylglucosamine--dolichyl-phosphate N-acetylglucosaminephosphotransferase (Homo sapiens); experiment: Inhibition of DPAGT1 in human SiHa cells assessed as reduction in snail protein expression incubated for 24 hrs by Western blot assay; format: cell-based
[15] = target: T2, UDP-N-acetylglucosamine--dolichyl-phosphate N-acetylglucosaminephosphotransferase (Homo sapiens); experiment: Inhibition of DPAGT1 in human PANC-1 cells assessed as reduction in snail protein expression incubated for 24 hrs by Western blot analysis; format: cell-based
PD002 [16] = experiment: Inhibition of E-cadherin protein expression in human PD002 cells at 0 to 2 uM incubated for 24 hrs by Western blot analysis; format: functional, cell-based; details: dose microM 0-2, time […]
PANC-1 [17] = experiment: Inhibition of E-cadherin protein expression in human PANC-1 cells at 0 to 2 uM incubated for 24 hrs by Western blot analysis; format: functional, cell-based; details: dose microM 0-2, time […]
HCT-116 [18] = experiment: Inhibition of E-cadherin protein expression in human HCT-116 cells at 0 to 2 uM incubated for 24 hrs by Western blot analysis; format: functional, cell-based; details: dose microM 0-2, time […]
[19] = Synergistic cytotoxicity in human PD002 cells assessed as FIC at 0.1 uM incubated for 72 hrs in presence of 0.63 uM paclitaxel by IncuCyte live cell analysis imaging system based assay; format: functional
[20] = Synergistic cytotoxicity in human PD002 cells assessed as FIC at 0.1 uM incubated for 72 hrs in presence of […] paclitaxel by IncuCyte live cell analysis imaging system based assay; format: functional
[21] = Synergistic cytotoxicity in human PD002 cells assessed as FIC at 0.2 uM incubated for 72 hrs in presence of 0.020 uM paclitaxel by IncuCyte live cell analysis imaging system based assay; format: functional
[22] = Synergistic cytotoxicity in human PD002 cells assessed as FIC at 0.2 uM incubated for 72 hrs in presence of 0.031 uM paclitaxel by IncuCyte live cell analysis imaging system based assay; format: functional
[23] = Synergistic cytotoxicity in human PD002 cells assessed as FIC at 2 uM incubated for 72 hrs in presence of 0.31 uM paclitaxel by IncuCyte live cell analysis imaging system based assay; format: functional
PANC-1 [24] = experiment: Inhibition of DPAGT1 protein expression in human PANC-1 cells at 0.2 uM incubated for 24 hrs by Western blot analysis; format: functional, cell-based
PD002 [25] = experiment: Inhibition of DPAGT1 protein expression in human PD002 cells at 0.2 uM incubated for 24 hrs by Western blot analysis; format: functional, cell-based
ASPC1 [26] = experiment: Inhibition of DPAGT1 protein expression in human ASPC1 cells at 0.2 uM incubated for 24 hrs by Western blot analysis; format: functional, cell-based
CAPAN-1 [27] = experiment: Inhibition of DPAGT1 protein expression in human CAPAN-1 cells at 0.2 uM incubated for 24 hrs by Western blot analysis; format: functional, cell-based
SiHa [28] = experiment: Inhibition of DPAGT1 protein expression in human SiHa cells at 0.2 uM incubated for 24 hrs by Western blot analysis; format: functional, cell-based
HCT-116 [29] = experiment: Inhibition of DPAGT1 protein expression in human HCT-116 cells at 0.2 uM incubated for 24 hrs by Western blot analysis; format: functional, cell-based
[30] = Inhibition of DPAGT1 protein expression in human HCT-116 cells assessed as DPAGT1 protein level at 0.1 to 20 uM incubated for 24 hrs by Western blot analysis; format: functional; design: scale not given: the % may be the effect or the level left; details: dose microM 0.1-20
[31] = Cytotoxicity in mouse L1210 cells assessed as reduction in cell viability incubated for 72 hrs by MTT assay; details: L1210, 72 h
HCT-116 [32] = experiment: Inhibition of DPAGT1 protein expression in human HCT-116 cells at 0.1 to 20 uM incubated for 72 hrs by immunofluorescence assay; details: dose microM 0.1-20, time 72.0 hrs
[33] = Cytotoxicity in human PD002 cells assessed as phase area confluence level at 50 uM incubated for 72 hrs by IncuCyte live cell analysis imaging system based assay (reference value: 70%)

Structure (SMILES): CO[C@H]1[C@@H](O)[C@H](n2ccc(=O)[nH]c2=O)O[C@@H]1[C@@H](O[C@H]1OC(C(=O)NCc2ccc(N3CCC(Oc4ccc(OC(F)(F)F)cc4)CC3)cc2)=C[C@H](O)[C@@H]1O)C(N)=O
- IC50 [1]: 10.3 µM
- IC50 [2]: 200 nM
- IC50 (SiHa [3]): 15 µM
- IC50 (HCT-116 [4]): 15 µM
- IC50 (CAPAN-1 [5]): 30 µM
- IC50 (ASPC1 [6]): 25 µM
- IC50 [7]: 35 µM
- IC50 [8]: > 50 µM
- IC50 (Vero): > 50 µM
- inhibition (INH) [9]: 20%
- Activity [10]: 20%
- inhibition (PD002 [11]): Active
- inhibition [12]: Active
- inhibition [13]: Active
- inhibition [14]: Active
- inhibition [15]: Active
- inhibition (PD002 [16]): inactive
- inhibition (PANC-1 [17]): inactive
- inhibition (HCT-116 [18]): inactive
- FIC [19]: 0.5
- FIC [20]: 0.13
- FIC [21]: 0.021
- FIC [22]: 0.26
- FIC [23]: 0.26
- inhibition (PANC-1 [24]): Active
- inhibition (PD002 [25]): Active
- inhibition (ASPC1 [26]): Active
- inhibition (CAPAN-1 [27]): Active
- inhibition (SiHa [28]): Active
- inhibition (HCT-116 [29]): Active
- Activity [30]: 20%
- IC50 [31]: > 50 µM
- inhibition (HCT-116 [32]): inactive
- Activity [33]: 10%
